Assay results: PubChem BioAssay (NCI)
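In this assay, cells in 96-well plates receive the compound at five concentrations for 48 hours. Endpoints are linearly interpolated between the surrounding concentrations. Here, GI50 denotes the concentration required for 50% inhibition of growth. The concentration for full growth arrest is given as TGI.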

test system: OVCAR-4 ovarian; experiment: inhibition of tumour cell growth, NCI panel, 48 h

In the case of `O=NN(CCCl)C(=O)NC1CCSc2ccccc21` (stereo unspecified), the TGI is reported as > 100 µM.

test system: OVCAR-8 ovarian; experiment: inhibition of tumour cell growth, NCI panel, 48 h

`O=[N+]([O-])c1ccc(C=C2C(Cl)=C(Cl)C(Cl)=C2Cl)cc1` and `Cc1ccc2c(n1)C(=O)c1[nH]c3ccccc3c1C2=O` are within 1.5-fold of each other in GI50: 2.16 µM for the first, 2.61 µM for the second.

With `Cc1nc(N)sc1-c1ccnc(Nc2ccc(N3CCOCC3)cc2)n1` the GI50 was 2.78 µM.

Going from `O=[N+]([O-])c1ccc(C=C2C(Cl)=C(Cl)C(Cl)=C2Cl)cc1` to `Cc1ccc2c(n1)C(=O)c1[nH]c3ccccc3c1C2=O`, the TGI rises from 5.28 µM to > 100 µM.

`COc1ccccc1C1C(C(=O)O)=C(CO)Oc2cc3c(cc21)OCO3` (stereo unspecified) and `Cc1ccc(S(=O)(=O)Oc2cc(-c3ccccc3)nc3ccccc23)cc1` cannot be ordered by TGI: > 100 µM for the first, > 77.6 µM for the second.

`O=C(OC(=O)n1ccc2ccccc21)n1ccc2ccccc21` and `c1ccc(N=C2SC(=NC3CCCCC3)N(C3CCCCC3)C2=Nc2ccccc2)cc1` cannot be ordered by TGI: > 100 µM for the first, > 100 µM for the second.

`Cc1nc(N)sc1-c1ccnc(Nc2ccc(N3CCOCC3)cc2)n1` and `Cc1cc(=O)[nH]c(NN2C(Cl)C(=O)C2c2cccc(O)c2)n1` (stereo unspecified) cannot be ordered by TGI: > 100 µM for the first, > 100 µM for the second.

`CC(=O)Oc1cccc2c(/C=N/NC(N)=S)ncc(C)c12` and `O=NN(CCCl)C(=O)NC1CCSc2ccccc21` (stereo unspecified) cannot be ordered by TGI: > 34.9 µM for the first, > 100 µM for the second.

Going from `CC(=O)OC1CCC2(C)C3CCC4(C)C(c5ccc(=O)oc5)CC5OC54C3CCC2(O)C1` (stereo unspecified) to `CC1CC=CC(O)C1` (stereo unspecified), the TGI rises from 7.73 µM to > 100 µM.

For `NNC(N)Nc1ccccc1` (stereo unspecified), the TGI was > 100 µM.

test system: SF-295 CNS; experiment: inhibition of tumour cell growth, NCI panel, 48 h

First: O=[N+]([O-])c1ccc(C=C2C(Cl)=C(Cl)C(Cl)=C2Cl)cc1
Second: Cc1ccc2c(n1)C(=O)c1[nH]c3ccccc3c1C2=O
The GI50 of the first is 4.6-fold higher: 3.47 µM for the first, 0.761 µM for the second.

`Cc1nc(N)sc1-c1ccnc(Nc2ccc(N3CCOCC3)cc2)n1` gave a GI50 of 1.2 µM.

First: O=[N+]([O-])c1ccc(C=C2C(Cl)=C(Cl)C(Cl)=C2Cl)cc1
Second: Cc1ccc2c(n1)C(=O)c1[nH]c3ccccc3c1C2=O
The TGI of the first is 37-fold higher: 76.6 µM for the first, 2.05 µM for the second.

Compared with `COc1ccccc1C1C(C(=O)O)=C(CO)Oc2cc3c(cc21)OCO3` (stereo unspecified), `Cc1ccc(S(=O)(=O)Oc2cc(-c3ccccc3)nc3ccccc23)cc1` is lower in TGI: > 100 µM for the first, 13.1 µM for the second.

`O=C(OC(=O)n1ccc2ccccc21)n1ccc2ccccc21` and `c1ccc(N=C2SC(=NC3CCCCC3)N(C3CCCCC3)C2=Nc2ccccc2)cc1` cannot be ordered by TGI: > 100 µM for the first, > 100 µM for the second.

Compared with `C=CC(Br)(CBr)CCC(Cl)C(C)C` (stereo unspecified), `O=NN(CCCl)C(=O)NC1CCSc2ccccc21` (stereo unspecified) is higher in TGI: 3.9 µM for the first, > 100 µM for the second.

Compared with `Cc1nc(N)sc1-c1ccnc(Nc2ccc(N3CCOCC3)cc2)n1`, `CC(=O)Oc1cccc2c(/C=N/NC(N)=S)ncc(C)c12` is 5.2-fold lower in TGI: 74.4 µM for the first, 14.4 µM for the second.

Compared with `CC(=O)OC1CCC2(C)C3CCC4(C)C(c5ccc(=O)oc5)CC5OC54C3CCC2(O)C1` (stereo unspecified), `CC1CC=CC(O)C1` (stereo unspecified) is higher in TGI: 5.63 µM for the first, > 100 µM for the second.

`NNC(N)Nc1ccccc1` (stereo unspecified) was tested, and the TGI was > 100 µM.

test system: SK-MEL-2 melanoma; experiment: inhibition of tumour cell growth, NCI panel, 48 h

`O=[N+]([O-])c1ccc(C=C2C(Cl)=C(Cl)C(Cl)=C2Cl)cc1` and `Cc1ccc2c(n1)C(=O)c1[nH]c3ccccc3c1C2=O` are within 1.5-fold of each other in GI50: 2.77 µM for the first, 3.36 µM for the second.

`Cc1nc(N)sc1-c1ccnc(Nc2ccc(N3CCOCC3)cc2)n1` showed a GI50 of 5.16 µM.

Compared with `O=[N+]([O-])c1ccc(C=C2C(Cl)=C(Cl)C(Cl)=C2Cl)cc1`, `Cc1ccc2c(n1)C(=O)c1[nH]c3ccccc3c1C2=O` is higher in TGI: 8.89 µM for the first, > 100 µM for the second.

Going from `COc1ccccc1C1C(C(=O)O)=C(CO)Oc2cc3c(cc21)OCO3` (stereo unspecified) to `Cc1ccc(S(=O)(=O)Oc2cc(-c3ccccc3)nc3ccccc23)cc1`, the TGI falls from > 100 µM to 17 µM.

`O=C(OC(=O)n1ccc2ccccc21)n1ccc2ccccc21` and `c1ccc(N=C2SC(=NC3CCCCC3)N(C3CCCCC3)C2=Nc2ccccc2)cc1` cannot be ordered by TGI: > 100 µM for the first, > 100 µM for the second.

Going from `C=CC(Br)(CBr)CCC(Cl)C(C)C` (stereo unspecified) to `O=NN(CCCl)C(=O)NC1CCSc2ccccc21` (stereo unspecified), the TGI rises from 3.92 µM to > 100 µM.

Compared with `Cc1nc(N)sc1-c1ccnc(Nc2ccc(N3CCOCC3)cc2)n1`, `Cc1cc(=O)[nH]c(NN2C(Cl)C(=O)C2c2cccc(O)c2)n1` (stereo unspecified) is higher in TGI: 59.3 µM for the first, > 100 µM for the second.

Compared with `CC(=O)Oc1cccc2c(/C=N/NC(N)=S)ncc(C)c12`, `CC(=O)OC1CCC2(C)C3CCC4(C)C(c5ccc(=O)oc5)CC5OC54C3CCC2(O)C1` (stereo unspecified) is 1.9-fold lower in TGI: 25.3 µM for the first, 13 µM for the second.

`NNC(N)Nc1ccccc1` (stereo unspecified) and `CC1CC=CC(O)C1` (stereo unspecified) cannot be ordered by TGI: > 100 µM for the first, > 100 µM for the second.

test system: SK-MEL-28 melanoma; experiment: inhibition of tumour cell growth, NCI panel, 48 h

`O=[N+]([O-])c1ccc(C=C2C(Cl)=C(Cl)C(Cl)=C2Cl)cc1` and `Cc1ccc2c(n1)C(=O)c1[nH]c3ccccc3c1C2=O` are within 1.5-fold of each other in GI50: 3.81 µM for the first, 3.87 µM for the second.

With `Cc1nc(N)sc1-c1ccnc(Nc2ccc(N3CCOCC3)cc2)n1` the GI50 was 4.22 µM.

Compared with `O=[N+]([O-])c1ccc(C=C2C(Cl)=C(Cl)C(Cl)=C2Cl)cc1`, `Cc1ccc2c(n1)C(=O)c1[nH]c3ccccc3c1C2=O` is higher in TGI: 74.4 µM for the first, > 100 µM for the second.

First: COc1ccccc1C1C(C(=O)O)=C(CO)Oc2cc3c(cc21)OCO3 (stereo unspecified)
Second: Cc1ccc(S(=O)(=O)Oc2cc(-c3ccccc3)nc3ccccc23)cc1
The TGI of the first is higher: > 100 µM for the first, 68.7 µM for the second.

`O=C(OC(=O)n1ccc2ccccc21)n1ccc2ccccc21` and `c1ccc(N=C2SC(=NC3CCCCC3)N(C3CCCCC3)C2=Nc2ccccc2)cc1` cannot be ordered by TGI: > 100 µM for the first, > 100 µM for the second.

First: C=CC(Br)(CBr)CCC(Cl)C(C)C (stereo unspecified)
Second: O=NN(CCCl)C(=O)NC1CCSc2ccccc21 (stereo unspecified)
The TGI of the first is lower: 2.98 µM for the first, > 94.1 µM for the second.

`Cc1nc(N)sc1-c1ccnc(Nc2ccc(N3CCOCC3)cc2)n1` and `Cc1cc(=O)[nH]c(NN2C(Cl)C(=O)C2c2cccc(O)c2)n1` (stereo unspecified) cannot be ordered by TGI: > 100 µM for the first, > 100 µM for the second.

Compared with `CC(=O)Oc1cccc2c(/C=N/NC(N)=S)ncc(C)c12`, `CC(=O)OC1CCC2(C)C3CCC4(C)C(c5ccc(=O)oc5)CC5OC54C3CCC2(O)C1` (stereo unspecified) is lower in TGI: > 48.4 µM for the first, 21.7 µM for the second.

`NNC(N)Nc1ccccc1` (stereo unspecified) and `CC1CC=CC(O)C1` (stereo unspecified) cannot be ordered by TGI: > 100 µM for the first, > 100 µM for the second.

test system: SNB-75 CNS; experiment: inhibition of tumour cell growth, NCI panel, 48 h

`O=[N+]([O-])c1ccc(C=C2C(Cl)=C(Cl)C(Cl)=C2Cl)cc1` and `Cc1nc(N)sc1-c1ccnc(Nc2ccc(N3CCOCC3)cc2)n1` are within 1.5-fold of each other in GI50: 2.05 µM for the first, 1.38 µM for the second.

`O=[N+]([O-])c1ccc(C=C2C(Cl)=C(Cl)C(Cl)=C2Cl)cc1` and `Cc1ccc(S(=O)(=O)Oc2cc(-c3ccccc3)nc3ccccc23)cc1` are within 1.5-fold of each other in TGI: 6.98 µM for the first, 6.93 µM for the second.

`COc1ccccc1C1C(C(=O)O)=C(CO)Oc2cc3c(cc21)OCO3` (stereo unspecified) and `O=NN(CCCl)C(=O)NC1CCSc2ccccc21` (stereo unspecified) cannot be ordered by TGI: > 100 µM for the first, > 100 µM for the second.

`O=C(OC(=O)n1ccc2ccccc21)n1ccc2ccccc21` and `c1ccc(N=C2SC(=NC3CCCCC3)N(C3CCCCC3)C2=Nc2ccccc2)cc1` cannot be ordered by TGI: > 100 µM for the first, > 100 µM for the second.

Going from `C=CC(Br)(CBr)CCC(Cl)C(C)C` (stereo unspecified) to `CC(=O)Oc1cccc2c(/C=N/NC(N)=S)ncc(C)c12`, the TGI rises from 3.04 µM to > 55.6 µM.

`Cc1nc(N)sc1-c1ccnc(Nc2ccc(N3CCOCC3)cc2)n1` and `Cc1cc(=O)[nH]c(NN2C(Cl)C(=O)C2c2cccc(O)c2)n1` (stereo unspecified) are within 1.5-fold of each other in TGI: 5.57 µM for the first, 6.73 µM for the second.

Going from `CC(=O)OC1CCC2(C)C3CCC4(C)C(c5ccc(=O)oc5)CC5OC54C3CCC2(O)C1` (stereo unspecified) to `CC1CC=CC(O)C1` (stereo unspecified), the TGI rises from 5.77 µM to > 100 µM.
